Read-outs that look alike come from different tables or passages of the source.
Key:
[1] = In use testing of reconstituted solutions in IV bags and IV tubings; assay type: physicochemical
Description: The IV bags and IV tubings were sampled over time and tested for % assay/degradation.

in vivo [2] = details: both, monkey, inhaled or intranasal
Description: The average deposited dose was calculated at 0.168 mg/kg and 0.536 mg/kg, respectively. Plasma, peripheral blood mononuclear cells (PBMCs), trachea, bronchi, lung lobe, liver, kidney, nasal mucosa and nasopharyngeal mucosa samples were collected in this study.

in vivo [3] = assay: in vivo; set-up: species or system African Green Monkeys; details: monkey, iv, 10 mg/kg
[4] = assay type: physicochemical; details: for % assay/degs / Total degs / pH: T = 0
Description: For each condition, samples were staged at ambient and refrigerated conditions. Samples were analyzed for % assay/degs, appearance, reconstitution time, pH, and compared to T=0. The structures of the key impurities/metabolites are shown below.

## CCC(CC)COC(=O)[C@H](C)N[P@](=O)(OC[C@H]1O[C@@](C#N)(c2ccc3c(N)ncnn23)[C@H](O)[C@@H]1O)Oc1ccccc1 [Formula Ia, (S)-2-ethylbutyl 2-(((S)-(((2R,3S,4R,5R)-5-(4-aminopyrrolo[2,1-f][1,2,4]triazin-7-yl)-5-cyano-3,4-dihydroxytetrahydrofuran-2-yl)methoxy)(phenoxy)phosphoryl)amino)propanoate]
[1]; 0 h, 0.3 mg/mL
  Total degradation: 0.2 % w/w
[1]; 0 h, 2 mg/mL
  Total degradation: 0.2 % w/w
[1]; 4 h, 0.3 mg/mL
  Total degradation: 0.2 % w/w
[1]; 4 h, 2 mg/mL
  Total degradation: 0.2 % w/w
[1]; 6 h, 0.3 mg/mL
  Total degradation: 0.2 % w/w
[1]; 6 h, 2 mg/mL
  Total degradation: 0.2 % w/w
[1]; 8 h, 0.3 mg/mL
  Total degradation: 0.2 % w/w
[1]; 8 h, 2 mg/mL
  Total degradation: 0.2 % w/w
[1]; 24 h, 0.3 mg/mL
  Total degradation: 0.2 % w/w
[1]; 24 h, 2 mg/mL
  Total degradation: 0.2 % w/w
[1]; 48 h, 0.3 mg/mL
  Total degradation: 0.2 % w/w
[1]; 48 h, 2 mg/mL
  Total degradation: 0.2 % w/w
In vivo [2]; 0.168 mg/kg
  AUC(0-t): 0.023 ± 0.008 µM·h
  Cmax: 39 ± 14 nM
  Tmax: 0.52 h
In vivo [2]; 0.536 mg/kg
  AUC(0-t): 0.146 ± 0.045 µM·h
  Cmax: 101 ± 19 nM
  Tmax: 1.53 h
In vivo [3]
  AUC(0-t): 7.26 µM·h
[4]; pH 1.8, 2-8° C., 2 h
  % assay/degs, difference from T = 0: 0.0%
  Total degs, difference from T = 0: 0.0%
  pH, difference from T = 0: 0.0
[4]; pH 1.8, 2-8° C., 3 h
  % assay/degs, difference from T = 0: −0.2%
  Total degs, difference from T = 0: 0.0%
  pH, difference from T = 0: 0.0
[4]; pH 1.8, 2-8° C., 8 h
  % assay/degs, difference from T = 0: −0.2%
  Total degs, difference from T = 0: 0.1%
  pH, difference from T = 0: 0.0
[4]; pH 1.8, 2-8° C., 24 h
  % assay/degs, difference from T = 0: −0.5%
  Total degs, difference from T = 0: 0.2%
  pH, difference from T = 0: 0.0
[4]; pH 1.8, 2-8° C., 48 h
  % assay/degs, difference from T = 0: −0.2%
  Total degs, difference from T = 0: 0.4%
  pH, difference from T = 0: 0.0
[4]; pH 1.8, Ambient, 1 h
  % assay/degs, difference from T = 0: −0.3%
  Total degs, difference from T = 0: 0.0%
  pH, difference from T = 0: 0.0
[4]; pH 1.8, Ambient, 2 h
  % assay/degs, difference from T = 0: −0.1%
  Total degs, difference from T = 0: 0.1%
  pH, difference from T = 0: 0.0
[4]; pH 1.8, Ambient, 3 h
  % assay/degs, difference from T = 0: −0.3%
  Total degs, difference from T = 0: 0.1%
  pH, difference from T = 0: 0.0
[4]; pH 1.8, Ambient, 8 h
  % assay/degs, difference from T = 0: −0.4%
  Total degs, difference from T = 0: 0.4%
  pH, difference from T = 0: 0.0
[4]; pH 1.8, Ambient, 24 h
  % assay/degs, difference from T = 0: −1.3%
  Total degs, difference from T = 0: 1.2%
  pH, difference from T = 0: 0.0
[4]; pH 1.8, Ambient, 48 h
  % assay/degs, difference from T = 0: −3.5%
  Total degs, difference from T = 0: 2.4%
  pH, difference from T = 0: 0.0
[4]; pH 1.8
  % assay/degs: 99.4%
  Total degs: 0.2%
  pH: 1.8
[4]; pH 2.0, 2-8° C., 2 h
  % assay/degs, difference from T = 0: 0.6%
  Total degs, difference from T = 0: 0.0%
  pH, difference from T = 0: 0.0
[4]; pH 2.0, 2-8° C., 3 h
  % assay/degs, difference from T = 0: 0.2%
  Total degs, difference from T = 0: 0.0%
  pH, difference from T = 0: 0.0
[4]; pH 2.0, 2-8° C., 8 h
  % assay/degs, difference from T = 0: −0.1%
  Total degs, difference from T = 0: 0.1%
  pH, difference from T = 0: 0.0
[4]; pH 2.0, 2-8° C., 24 h
  % assay/degs, difference from T = 0: 0.2%
  Total degs, difference from T = 0: 0.1%
  pH, difference from T = 0: 0.0
[4]; pH 2.0, 2-8° C., 48 h
  % assay/degs, difference from T = 0: −0.5%
  Total degs, difference from T = 0: 0.3%
  pH, difference from T = 0: 0.0
[4]; pH 2.0, Ambient, 1 h
  % assay/degs, difference from T = 0: 0.1%
  Total degs, difference from T = 0: 0.0%
  pH, difference from T = 0: 0.0
[4]; pH 2.0, Ambient, 2 h
  % assay/degs, difference from T = 0: −0.2%
  Total degs, difference from T = 0: 0.1%
  pH, difference from T = 0: 0.0
[4]; pH 2.0, Ambient, 3 h
  % assay/degs, difference from T = 0: 0.3%
  Total degs, difference from T = 0: 0.1%
  pH, difference from T = 0: 0.0
[4]; pH 2.0, Ambient, 8 h
  % assay/degs, difference from T = 0: −0.2%
  Total degs, difference from T = 0: 0.2%
  pH, difference from T = 0: 0.0
[4]; pH 2.0, Ambient, 24 h
  % assay/degs, difference from T = 0: −0.6%
  Total degs, difference from T = 0: 0.8%
  pH, difference from T = 0: 0.0
[4]; pH 2.0, Ambient, 48 h
  % assay/degs, difference from T = 0: −1.8%
  Total degs, difference from T = 0: 1.6%
  pH, difference from T = 0: 0.0
[4]; pH 2.0
  % assay/degs: 99.2%
  Total degs: 0.2%
  pH: 2.0
[4]; pH 3.5, 2-8° C., 2 h
  % assay/degs, difference from T = 0: 0.6%
  Total degs, difference from T = 0: 0.0%
  pH, difference from T = 0: 0.0
[4]; pH 3.5, 2-8° C., 8 h
  % assay/degs, difference from T = 0: 0.3%
  Total degs, difference from T = 0: 0.0%
  pH, difference from T = 0: 0.0
[4]; pH 3.5, 2-8° C., 24 h
  % assay/degs, difference from T = 0: 0.7%
  Total degs, difference from T = 0: 0.0%
  pH, difference from T = 0: −0.1
[4]; pH 3.5, 2-8° C., 48 h
  % assay/degs, difference from T = 0: 0.5%
  Total degs, difference from T = 0: 0.0%
  pH, difference from T = 0: 0.0
[4]; pH 3.5, 2-8° C., 72 h
  % assay/degs, difference from T = 0: 0.7%
  Total degs, difference from T = 0: 0.0%
  pH, difference from T = 0: −0.1
[4]; pH 3.5, 2-8° C., 96 h
  % assay/degs, difference from T = 0: 0.2%
  Total degs, difference from T = 0: 0.0%
  pH, difference from T = 0: 0.0
[4]; pH 3.5, 2-8° C., 168 h
  % assay/degs, difference from T = 0: 0.6%
  Total degs, difference from T = 0: 0.0%
  pH, difference from T = 0: 0.0
[4]; pH 3.5, Ambient, 2 h
  % assay/degs, difference from T = 0: 0.6%
  Total degs, difference from T = 0: 0.0%
  pH, difference from T = 0: 0.0
[4]; pH 3.5, Ambient, 8 h
  % assay/degs, difference from T = 0: 0.2%
  Total degs, difference from T = 0: 0.0%
  pH, difference from T = 0: 0.0
[4]; pH 3.5, Ambient, 24 h
  % assay/degs, difference from T = 0: 0.6%
  Total degs, difference from T = 0: 0.0%
  pH, difference from T = 0: 0.0
[4]; pH 3.5, Ambient, 48 h
  % assay/degs, difference from T = 0: 0.3%
  Total degs, difference from T = 0: 0.1%
  pH, difference from T = 0: 0.0
[4]; pH 3.5, Ambient, 72 h
  % assay/degs, difference from T = 0: 0.2%
  Total degs, difference from T = 0: 0.1%
  pH, difference from T = 0: −0.1
[4]; pH 3.5, Ambient, 96 h
  % assay/degs, difference from T = 0: 0.0%
  Total degs, difference from T = 0: 0.1%
  pH, difference from T = 0: 0.0
[4]; pH 3.5, Ambient, 168 h
  % assay/degs, difference from T = 0: 0.2%
  Total degs, difference from T = 0: 0.2%
  pH, difference from T = 0: 0.0
[4]; pH 3.5
  % assay/degs: 99.1%
  Total degs: 0.1%
  pH: 3.5
[4]; pH 3.8, 2-8° C., 7.2 h
  % assay/degs, difference from T = 0: −0.2%
  Total degs, difference from T = 0: 0.0%
  pH, difference from T = 0: −0.1
[4]; pH 3.8, 2-8° C., 24 h
  % assay/degs, difference from T = 0: 0.3%
  Total degs, difference from T = 0: 0.0%
  pH, difference from T = 0: 0.0
[4]; pH 3.8, 2-8° C., 96 h
  % assay/degs, difference from T = 0: 0.1%
  Total degs, difference from T = 0: 0.0%
  pH, difference from T = 0: −0.1
[4]; pH 3.8, 2-8° C., 168 h
  % assay/degs, difference from T = 0: 0.1%
  Total degs, difference from T = 0: 0.0%
  pH, difference from T = 0: −0.1
[4]; pH 3.8, Ambient, 7.2 h
  % assay/degs, difference from T = 0: 0.0%
  Total degs, difference from T = 0: 0.0%
  pH, difference from T = 0: 0.0
[4]; pH 3.8, Ambient, 24 h
  % assay/degs, difference from T = 0: 0.4%
  Total degs, difference from T = 0: 0.0%
  pH, difference from T = 0: 0.0
[4]; pH 3.8, Ambient, 96 h
  % assay/degs, difference from T = 0: 0.0%
  Total degs, difference from T = 0: 0.1%
  pH, difference from T = 0: −0.1
[4]; pH 3.8, Ambient, 168 h
  % assay/degs, difference from T = 0: 0.0%
  Total degs, difference from T = 0: 0.1%
  pH, difference from T = 0: −0.1
[4]; pH 3.8
  % assay/degs: 98.7%
  Total degs: 0.1%
  pH: 3.8
[4]; pH 4.0, 2-8° C., 7.2 h
  % assay/degs, difference from T = 0: 0.0%
  Total degs, difference from T = 0: 0.0%
  pH, difference from T = 0: 0.0
[4]; pH 4.0, 2-8° C., 24 h
  % assay/degs, difference from T = 0: 0.3%
  Total degs, difference from T = 0: 0.0%
  pH, difference from T = 0: 0.0
[4]; pH 4.0, 2-8° C., 96 h
  % assay/degs, difference from T = 0: 0.2%
  Total degs, difference from T = 0: 0.0%
  pH, difference from T = 0: 0.0
[4]; pH 4.0, 2-8° C., 168 h
  % assay/degs, difference from T = 0: 0.6%
  Total degs, difference from T = 0: 0.0%
  pH, difference from T = 0: −0.1
[4]; pH 4.0, Ambient, 7.2 h
  % assay/degs, difference from T = 0: 0.3%
  Total degs, difference from T = 0: 0.0%
  pH, difference from T = 0: 0.0
[4]; pH 4.0, Ambient, 24 h
  % assay/degs, difference from T = 0: 0.3%
  Total degs, difference from T = 0: 0.0%
  pH, difference from T = 0: 0.0
[4]; pH 4.0, Ambient, 96 h
  % assay/degs, difference from T = 0: 0.0%
  Total degs, difference from T = 0: 0.1%
  pH, difference from T = 0: 0.0
[4]; pH 4.0, Ambient, 168 h
  % assay/degs, difference from T = 0: −0.2%
  Total degs, difference from T = 0: 0.1%
  pH, difference from T = 0: −0.1
[4]; pH 4.0
  % assay/degs: 98.6%
  Total degs: 0.1%
  pH: 4.0
